# Laboratory results reported in patent US20170080049A1, “MEDICINE AGAINST GROWTH FAILURE INDUCED BY ADMINISTRATION OF STEROID” (DAIICHI SANKYO COMPANY, LIMITED, priority 2014, published 2017).
# Tests used:
# [1] = system: rat growth failure induced by dexamethasone; experiment: Action comparing study between CNP derivative (A) and human growth hormone on rat growth failure induced by dexamethasone (Example 6); type: in vivo; details: 2 mL/kg s.c. once a day 28 days, n=4 or 5
# Description: Osmotic pumps (MINI-OSMOTIC PUMP Model 2004, available from DURECT CORPORATION, flow rate: 0.25 μL/hr, for 28 days) were charged with a 0.67 mg/mL solution of dexamethasone (dexamethasone injection “KS”, available from Kyoritsuseiyaku Corporation), and one osmotic pump was embedded in the hypoderm of the back of each 4-week-old male Crlj:WI (Wistar) rat (5 animals/group, Group 2 to Group 4, total of 15 animals). For Group 3, a 1 mg/mL solution of CNP derivative (A) (medium: 0.03 mol/L acetate buffer (pH 4.0)/1% benzyl alcohol/10% sucrose), and for Group 4, a 1 mg/mL solution of human-type growth hormone preparation (somatropin BS subcutaneous injection 10 mg “SANDOZ”) diluted with a phosphate buffer was administered to the hypoderm of the back of five rats, respectively, in a volume of 2 mL/kg once a day for 28 days. No substance was administered to the normal control group (5 animals, Group 1). On the final day, after measuring the body weight, the body length and the tail length, the blood was collected from the abdominal aorta and the animal was caused to die under isoflurane anesthesia, the left femur was extracted and the bone length was measured, and then a histopathological specimen of the epiphyseal region was prepared.
# [2] = system: rat growth failure induced by dexamethasone; experiment: Follow-up administration test of CNP derivative (A) for rat growth failure induced by dexamethasone (Example 4); type: in vivo; details: n=5
# Description: Osmotic pumps (MINI-OSMOTIC PUMP Model 2004, available from DURECT CORPORATION, flow rate: 0.25 μL/hr, for 28 days) were charged with a 0.67 mg/mL solution of dexamethasone (dexamethasone injection “KS”, available from Kyoritsuseiyaku Corporation), and one osmotic pump was embedded in the hypoderm of the back of each 4-week-old male Crlj:WI (Wistar) rat (5 animals/group, Group 2 and Group 3), and the animals were fed for 14 days. […] During the feeding period, transitions of the body weight, the body length and the tail length were measured, and on the final day, blood was collected from the abdominal aorta and the animal was caused to die under isoflurane anesthesia, the right femur was extracted and its length was measured.
# [3] = dexamethasone 0.67 mg/mL pump alone or with CNP derivative (A) or human-type growth hormone 1 mg/mL
# [4] = dexamethasone 0.67 mg/mL pump alone or with CNP derivative (A) 15 mg/mL pump for 28 days from Day 14
# [5] = dexamethasone 0.67 mg/mL pump, 4-week-old male Wistar rat, baseline before CNP derivative (A)
smiles,measurement,setting,value
"C[C@@H]1C[C@H]2[C@@H]3CCC4=CC(=O)C=C[C@]4(C)[C@@]3(F)[C@@H](O)C[C@]2(C)[C@@]1(O)C(=O)CO [Dexamethasone, dexamethasone]",Body weight at dissection,"[1]; dexamethasone 0.67 mg/mL pump 28 days alone or with CNP derivative (A) or human-type growth hormone 1 mg/mL, 4-week-old male Wistar rat, mean ± SD",245 ± 12 g
same,Body length at dissection,[1]; [3],199 ± 4 mm
same,"Body length, variation from pre-administration value (Δ value)",[1]; [3],(46.8 ± 4.7) mm
same,"Body weight, variation from pre-administration value (Δ value)",[1]; [3],(139 ± 13) g
same,Left femur length at dissection,[1]; [3],31.3 ± 0.2 mm
same,Tail length at dissection,[1]; [3],197 ± 5 mm
same,"Tail length, variation from pre-administration value (Δ value)",[1]; [3],(65.0 ± 4.9) mm
same,Body weight at dissection (Day 28 of CNP derivative (A) administration),"[2]; dexamethasone 0.67 mg/mL pump 28 days alone or with CNP derivative (A) 15 mg/mL pump for 28 days from Day 14, male Wistar rat",308 ± 20 g
same,Body length at dissection (Day 28 of CNP derivative (A) administration),[2]; [4],204 ± 3 mm
same,Body length variation (Δ value) from starting of administration of CNP derivative (A),[2]; [4],(30 ± 1) mm
same,Body weight variation (Δ value) from starting of administration of CNP derivative (A),[2]; [4],(129 ± 9) g
same,Right femur length only at dissection,[2]; [4],32.9 ± 0.7 mm
same,Tail length at dissection (Day 28 of CNP derivative (A) administration),[2]; [4],202 ± 8 mm
same,Tail length variation (Δ value) from starting of administration of CNP derivative (A),[2]; [4],(25 ± 7) mm
same,"Body weight, Day 14 of dexamethasone administration (prior to administration of CNP derivative (A))","[2]; dexamethasone 0.67 mg/mL pump, 4-week-old male Wistar rat, baseline before CNP derivative (A), mean ± SD",179 ± 12 g
same,"Body length, Day 14 of dexamethasone administration (prior to administration of CNP derivative (A))",[2]; [5],174 ± 4 mm
same,"Tail length, Day 14 of dexamethasone administration (prior to administration of CNP derivative (A))",[2]; [5],177 ± 7 mm
